From patent US12458021B2, “Microbiocidal derivatives” (SYNGENTA CROP PROTECTION AG, priority 2019, dated 2025)

Columns and labels:
[1] = test system: Alternaria solani; assay: Alternaria solani / tomato / leaf disc (early blight); assay type: in vivo; conditions: foliar, tomato leaf disks cv. Baby, inoculated 2 days after application, assessed 5-7 days after application, read-out: control of Alternaria solani (percent disease control compared to untreated)
Method: Example B1: Alternaria solani/Tomato/Leaf Disc (Early Blight) Tomato leaf disks cv. Baby are placed on agar in multiwell plates (24-well format) and sprayed with the formulated test compound diluted in water. The leaf disks are inoculated with a spore suspension of the fungus 2 days after application. The inoculated leaf disks are incubated at 23° C./21° C. […] […]-185.

[2] = test system: Glomerella lagenarium (Colletotrichum lagenarium); assay: Glomerella lagenarium (Colletotrichum lagenarium) / liquid culture (anthracnose); assay type: cell-based; conditions: Colletotrichum orbiculare, PDB potato dextrose broth, 24° C., 3-4 days after application, read-out: control of Glomerella lagenarium (inhibition of growth, photometric)
In short: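 Fungal growth inhibition measured photometrically 3-4 days post-application at 24° C. Spores were mixed directly into potato dextrose broth and dispensed onto test compound supplied in DMSO.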

[3] = test system: Blumeria graminis f. sp. tritici (Erysiphe graminis f. sp. tritici); assay: Blumeria graminis f. sp. tritici / wheat / leaf disc preventative (powdery mildew on wheat); assay type: in vivo; conditions: foliar, wheat leaf segments cv. Kanzler, inoculated 1 day after application, assessed 6-8 days after application, read-out: control of Blumeria graminis f. sp. tritici (percent disease control compared to untreated)
From the text: Example B4: Blumeria graminis f. sp. tritici (Erysiphe graminis f. sp. tritici)/Wheat/Leaf Disc Preventative (Powdery Mildew on Wheat) Wheat leaf segments cv. Kanzler are placed on agar in a multiwell plate (24-well format) and sprayed with the formulated test compound diluted in water. The leaf disks are inoculated by shaking powdery mildew infected plants above the test plates 1 day after application. […] […]-192.

[4] = test system: Monographella nivalis (Microdochium nivale); assay: Monographella nivalis (Microdochium nivale) / liquid culture (foot rot cereals); assay type: cell-based; conditions: PDB potato dextrose broth, 24° C., 4-5 days after application, read-out: control of Monographella nivalis (inhibition of growth, photometric)
In short: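 Growth inhibition measured by photometry 4-5 days post-application at 24° C. Compound was dispensed as DMSO solution, then PDB broth containing conidia from cryogenic storage was added.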

[5] = test system: Puccinia recondita f. sp. tritici; assay: Puccinia recondita f. sp. tritici / wheat / leaf disc curative (brown rust); assay type: in vivo; conditions: foliar, wheat leaf segments cv. Kanzler, compound applied 1 day after inoculation, assessed 6-8 days after application, read-out: control of Puccinia recondita f. sp. tritici, curative (percent disease control compared to untreated)
Method: Example B10: Puccinia recondita f. sp. tritici/Wheat/Leaf Disc Curative (Brown Rust) Wheat leaf segments cv. Kanzler are placed on agar in multiwell plates (24-well format). The leaf segments are inoculated with a spore suspension of the fungus. Plates are stored in darkness at 19° C. and 75% rh. The formulated test compound diluted in water is applied 1 day after inoculation. […] […]-185.

[6] = test system: Puccinia recondita f. sp. tritici; assay: Puccinia recondita f. sp. tritici / wheat / leaf disc preventative (brown rust); assay type: in vivo; conditions: foliar, wheat leaf segments cv. Kanzler, inoculated 1 day after application, assessed 7-9 days after application, read-out: control of Puccinia recondita f. sp. tritici, preventative (percent disease control compared to untreated)
In short: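 Wheat leaf segments (cv. Kanzler) on agar were sprayed with formulated compound, then inoculated with spores 1 day later. Segments were incubated at 19 °C, 75% rh with 12 h light/dark. Percent disease control versus untreated was scored 7–9 days after application.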

[7] = test system: Magnaporthe grisea (Pyricularia oryzae); assay: whole plant or invertebrate; assay type: in vivo; conditions: foliar, read-out: control of Magnaporthe grisea (percent disease control compared to untreated)
[8] = test system: Pyrenophora teres; assay: Pyrenophora teres / barley / leaf disc preventative (net blotch); assay type: in vivo; conditions: foliar, barley leaf segments cv. Hasso, inoculated 2 days after application, assessed 5-7 days after application, read-out: control of Pyrenophora teres (disease control compared to untreated)
In short: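 Barley cv. Hasso leaf discs on agar were sprayed with diluted formulated compound, then inoculated with spore suspension 2 days later. Incubation at 20 °C, 65% rh, 12 h light/dark; disease control versus untreated assessed 5-7 days after application.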

[9] = test system: Sclerotinia sclerotiorum; assay: Sclerotinia sclerotiorum / liquid culture (cottony rot); assay type: cell-based; conditions: PDB potato dextrose broth, mycelia fragments, 24° C., 3-4 days after application, read-out: control of Sclerotinia sclerotiorum (inhibition of growth, photometric)
Method: Example B14: Sclerotinia sclerotiorum/Liquid Culture (Cottony Rot) Mycelia fragments of a newly grown liquid culture of the fungus are directly mixed into nutrient broth (PDB potato dextrose broth). After placing a (DMSO) solution of test compound into a microtiter plate (96-well format) the nutrient broth containing the fungal material is added. The test plates are incubated at 24° C. and the inhibition of growth is determined photometrically 3-4 days after application.

[10] = test system: Mycosphaerella graminicola (Septoria tritici); assay: Mycosphaerella graminicola (Septoria tritici) / liquid culture (Septoria blotch); assay type: cell-based; conditions: Zymoseptoria tritici, PDB potato dextrose broth, 24° C., 4-5 days after application, read-out: control of Mycosphaerella graminicola (inhibition of growth, photometric)
In short: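 Fungal growth inhibition was read photometrically 4-5 days after application. Compound was dosed from a DMSO solution into liquid cultures of spores in potato dextrose broth, incubated at 24° C.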

[11] = test system: Botryotinia fuckeliana (Botrytis cinerea); assay: Botryotinia fuckeliana (Botrytis cinerea) / liquid culture (gray mould); assay type: cell-based; conditions: Vogels broth, 24° C., 3-4 days after application, read-out: control of Botryotinia fuckeliana (inhibition of growth, photometric)
In short: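 Botrytis cinerea conidia in Vogels broth were added to compound supplied as DMSO solution. Plates were incubated at 24 °C, and growth inhibition was read photometrically 3-4 days after application.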

[12] = test system: Mycosphaerella arachidis (Cercospora arachidicola); assay: Mycosphaerella arachidis (Cercospora arachidicola) / liquid culture (early leaf spot); assay type: cell-based; conditions: PDB potato dextrose broth, 24° C., 4-5 days after application, read-out: control of Mycosphaerella arachidis (inhibition of growth, photometric)
In short: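 Conidia from cryogenic storage suspended in potato dextrose broth and added to compound in DMSO. Incubation at 24° C; growth inhibition read photometrically 4-5 days after application.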

[13] = test system: Phaeosphaeria nodorum (Septoria nodorum); assay: Phaeosphaeria nodorum (Septoria nodorum) / wheat / leaf disc preventative (glume blotch); assay type: in vivo; conditions: Parastagonospora nodorum, foliar, wheat leaf segments cv. Kanzler, inoculated 2 days after application, assessed 5-7 days after application, read-out: control of Phaeosphaeria nodorum (percent disease control compared to untreated)
In short: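 Wheat cv. Kanzler leaf discs on agar were sprayed with formulated compound diluted in water and inoculated with spores 2 days later. Discs were kept at 20° C, 75% rh, 12 h light/dark; percent disease control versus untreated was scored 5-7 days after application.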

COc1ccc(Nc2cc(F)nc(F)c2)nc1C(=O)NC1(C)CCCC1 [Compound P-109, 6-[(2,6-difluoro-4-pyridyl)amino]-3-methoxy-N-(1-methylcyclopentyl)pyridine-2-carboxamide]
≥ 80%: pest or weed control at 200 ppm [1] | inhibition at 20 ppm [2] | pest or weed control at 200 ppm [3] | inhibition at 20 ppm [4] | pest or weed control at 200 ppm [5] | pest or weed control at 200 ppm [6] | pest or weed control at 200 ppm [7] | pest or weed control at 200 ppm [8] | inhibition at 20 ppm [9] | inhibition at 20 ppm [10]

COc1ccc(Nc2cc(F)c(F)c(F)c2)nc1C(=O)NC(C)(C)C [Compound P-162, N-tert-butyl-3-methoxy-6-(3,4,5-trifluoroanilino)pyridine-2-carboxamide]
≥ 80%: pest or weed control at 200 ppm [1] | inhibition at 20 ppm [11] | inhibition at 20 ppm [2] | pest or weed control at 200 ppm [3] | inhibition at 20 ppm [4] | inhibition at 20 ppm [12] | pest or weed control at 200 ppm [5] | pest or weed control at 200 ppm [6] | pest or weed control at 200 ppm [7] | pest or weed control at 200 ppm [8] | inhibition at 20 ppm [9] | inhibition at 20 ppm [10]

COc1ccc(Nc2cccc(F)c2)nc1C(=O)NC(C)(C)C [Compound P-160, N-tert-butyl-6-(3-fluoroanilino)-3-methoxy-pyridine-2-carboxamide]
≥ 80%: pest or weed control at 200 ppm [1] | inhibition at 20 ppm [11] | inhibition at 20 ppm [2] | pest or weed control at 200 ppm [3] | pest or weed control at 200 ppm [13] | inhibition at 20 ppm [4] | inhibition at 20 ppm [12] | pest or weed control at 200 ppm [5] | pest or weed control at 200 ppm [6] | pest or weed control at 200 ppm [7] | pest or weed control at 200 ppm [8] | inhibition at 20 ppm [9] | inhibition at 20 ppm [10]

COc1ccc(Nc2cc(F)cc(F)c2)nc1C(=O)NC(C)(C)C [Compound P-93, N-tert-butyl-6-(3,5-difluoroanilino)-3-methoxy-pyridine-2-carboxamide]
≥ 80%: pest or weed control at 200 ppm [1] | inhibition at 20 ppm [11] | inhibition at 20 ppm [2] | pest or weed control at 200 ppm [3] | pest or weed control at 200 ppm [13] | inhibition at 20 ppm [4] | inhibition at 20 ppm [12] | pest or weed control at 200 ppm [5] | pest or weed control at 200 ppm [6] | pest or weed control at 200 ppm [7] | pest or weed control at 200 ppm [8] | inhibition at 20 ppm [10]

COc1ccc(Nc2cc(F)nc(F)c2)nc1C(=O)NC1CCC1(C)C (stereo not shown) [Compound P-4, 6-[(2,6-difluoro-4-pyridyl)amino]-N-(2,2-dimethylcyclobutyl)-3-methoxy-pyridine-2-carboxamide]
≥ 80%: pest or weed control at 200 ppm [1] | inhibition at 20 ppm [2] | pest or weed control at 200 ppm [3] | pest or weed control at 200 ppm [13] | inhibition at 20 ppm [4] | pest or weed control at 200 ppm [5] | pest or weed control at 200 ppm [6] | pest or weed control at 200 ppm [7] | pest or weed control at 200 ppm [8] | inhibition at 20 ppm [9] | inhibition at 20 ppm [10]

COc1ccc(Nc2cc(F)cc(F)c2)nc1C(=O)NC1(C)CCC1 [Compound P-118, 6-(3,5-difluoroanilino)-3-methoxy-N-(1-methylcyclobutyl)pyridine-2-carboxamide]
≥ 80%: pest or weed control at 200 ppm [1] | inhibition at 20 ppm [11] | inhibition at 20 ppm [2] | pest or weed control at 200 ppm [3] | pest or weed control at 200 ppm [13] | inhibition at 20 ppm [4] | inhibition at 20 ppm [12] | pest or weed control at 200 ppm [5] | pest or weed control at 200 ppm [6] | pest or weed control at 200 ppm [7] | pest or weed control at 200 ppm [8] | inhibition at 20 ppm [10]
